In patent publication US7230002B2, “Dipeptidyl peptidase IV inhibitors; processes for their preparation and compositions thereof” (Glenmark Pharmaceuticals Ltd., priority 2004, dated 2007):
pIC50: −log10 of the molar value. Structures can show the parent of a compound that is named as a salt.

These compounds were tested against T1, human recombinant Dipeptidyl peptidase IV enzyme (Homo sapiens, UniProt P27487) (assay: In-vitro DPP-IV assay (cleavage of Gly-Pro-AMC)). Details: at 300 nM, n = 3, read-out: DPP-IV inhibition, percent inhibition at 300 nM.
T1 construct: purchased R & D Systems
T1 sequence (P27487 whole entry): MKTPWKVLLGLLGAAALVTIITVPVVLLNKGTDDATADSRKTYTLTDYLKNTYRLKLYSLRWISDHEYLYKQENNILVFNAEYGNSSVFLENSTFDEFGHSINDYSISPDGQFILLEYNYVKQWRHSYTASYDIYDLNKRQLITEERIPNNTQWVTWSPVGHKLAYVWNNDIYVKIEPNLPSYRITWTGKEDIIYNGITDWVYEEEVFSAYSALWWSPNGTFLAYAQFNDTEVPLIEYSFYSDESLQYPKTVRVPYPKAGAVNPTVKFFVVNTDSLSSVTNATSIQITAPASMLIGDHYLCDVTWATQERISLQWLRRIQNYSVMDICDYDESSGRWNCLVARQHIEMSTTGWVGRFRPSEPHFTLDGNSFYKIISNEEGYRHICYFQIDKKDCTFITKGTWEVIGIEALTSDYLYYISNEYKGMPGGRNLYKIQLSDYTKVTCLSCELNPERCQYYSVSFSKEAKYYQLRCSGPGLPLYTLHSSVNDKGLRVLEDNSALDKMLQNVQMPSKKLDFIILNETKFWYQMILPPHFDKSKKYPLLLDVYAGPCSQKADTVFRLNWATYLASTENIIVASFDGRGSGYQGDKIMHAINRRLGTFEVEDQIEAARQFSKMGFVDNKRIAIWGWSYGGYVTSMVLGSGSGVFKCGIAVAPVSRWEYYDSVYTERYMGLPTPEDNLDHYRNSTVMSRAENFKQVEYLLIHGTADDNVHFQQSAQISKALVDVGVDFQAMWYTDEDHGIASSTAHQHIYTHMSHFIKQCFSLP
Type: biochemical
Description: Protocol for In-Vitro DPP-IV Assay
DPPIV activity was determined by the cleavage rate of 7-amino-4-methyl coumarin (AMC) from synthetic substrate Glycyl-Prolyl-AMC. In brief, the assay was conducted by adding 10 ng of human recombinant Dipeptidyl peptidase IV enzyme (DPPIV, available commercially from R & D Systems) in 50 μl of the assay buffer (25 mM Tris, pH 7.4, 140 mM NaCl, 10 mM KCl, 1% BSA) to 96 well black flat bottom microtiter plates. The reaction was initiated by adding 50 μl of 100 μM substrate Gly-Pro-AMC. The incubation was carried out in the kinetic mode at 30° C. for 30 minutes. Fluorescence was measured using Fluorostar at excitation filter of 380 nm and emission filter of 460 nm). Test compounds and solvent controls were added as 1 μl additions. A standard curve of free amino methyl coumarin (AMC) was generated using 0–100 μM AMC in the assay buffer. The curve generated, which was linear was used for the interpolation of catalytic activity.
Test compounds dissolved in DMSO at 5–6 concentrations were tested in duplicate along with the solvent control and blank samples. Percent inhibition was calculated at each concentration with respect to the solvent control sample (no test compound added). IC50 values were calculated from 3 experiments using the prism software.
`N#Cc1ccc(NCC2CCC(NCC(=O)N3CCCC3)C2)nc1` (racemic) [Example-1, cis-(±)-6-(3-[2-(1-Pyrrolidinyl)-2-oxoethylamino]cyclopentylmethylamino)nicotino-nitrile] gave an inhibition at 0.3 µM of 6%. `N#Cc1ccc(NCC2CCC(NCC(=O)N3CCSC3)C2)nc1` (stereo not drawn) [Example-2] was tested, and the inhibition at 0.3 µM was 17%.

Same assay, conditions: n = 3, substrate Gly-Pro-AMC, 30° C., 30 minutes, read-out: DPP-IV inhibition IC50
`N#Cc1ccc(NCC2CCC(NCC(=O)N3C[C@@H](F)C[C@H]3C#N)C2)nc1` (mixture of isomers) [Example-14, 6-((1SR,3RS)-3-{2-[(2S,4S)-2-Cyano-4-fluoropyrrolidin-1-yl]-2-oxoethylamino}-cyclopentylmethylamino)nicotinonitrile] was tested, and the pIC50 was 8.45. In the case of `N#C[C@@H]1CCCN1C(=O)CNC1CCC(CNc2ncccn2)C1` (mixture of isomers) [Example-18, (2S)-1-{2-[(3SR,1RS)-3-(2-Pyrimidinylaminomethyl)cyclopentylamino)acetyl}-pyrrolidine-2-carbonitrile], the pIC50 was 8.01. For `N#C[C@@H]1CCCN1C(=O)CNC1CCC(CNc2ncccn2)C1` (mixture of isomers) [Example-19, (2S)-1-{2-[(3SR,1RS)-3-(2-Pyrimidinylaminomethyl)cyclopentylamino)acetyl}-pyrrolidine-2-carbonitrile dihydrochloride], the pIC50 was 7.70. Work on `N#C[C@@H]1CCCN1C(=O)CNC1CCC(CNc2ccc([N+](=O)[O-])c(Cl)c2)C1` (mixture of isomers) [Example-23, (2S)-1-{2-[(3SR,1RS)-3-(3-Chloro-4-nitroanilinomethyl)cyclopentylamino]acetyl}-pyrrolidine-2-carbonitrile] yielded a pIC50 of 7.84. With `N#C[C@@H]1CCCN1C(=O)CNC1CCC(CNc2ccc([N+](=O)[O-])cc2F)C1` (mixture of isomers) [Example-24, (2S)-1-{2-[(3SR,1RS)-3-(2-Fluoro-4-nitroanilinomethyl)cyclopentylamino]acetyl}-pyrrolidine-2-carbonitrile] the pIC50 was 8.20. For `N#C[C@@H]1CCCN1C(=O)CNC1CCC(CNc2cc(F)c(F)cc2F)C1` (mixture of isomers) [Example-27, (2S)-1-{2-[(3SR,1RS)-3-(2,4,5-Trifluoroanilinomethyl)cyclopentylamino]acetyl}-pyrrolidine-2-carbonitrile], the pIC50 was 7.76. `N#C[C@@H]1CCCN1C(=O)CNC1CCC(CSc2ccccc2)C1` (mixture of isomers) [Example-28, (2S)-1-{2-[(3SR,1RS)-3-Phenylsulfanylmethylcyclopentylamino]acetyl}-pyrrolidine-2-carbonitrile] showed a pIC50 of 7.65. `N#Cc1ccc(SCC2CCC(NCC(=O)N3CCC[C@H]3C#N)C2)nc1` (mixture of isomers) [Example-38, 6-((1SR,3RS)-3-{2-[(2S)-2-Cyanopyrrolidin-1-yl]-2-oxoethylamino}cyclopentyl-methylsulfanyl)nicotinonitrile] was tested, and the pIC50 was 8.03. For `N#Cc1ccc(S(=O)(=O)CC2CCC(NCC(=O)N3CCC[C@H]3C#N)C2)nc1` (mixture of isomers) [Example-40, 6-((1SR,3RS)-3-{2-[(2S)-2-Cyanopyrrolidin-1-yl)-2-oxoethylamino}cyclopentyl-methylsulfonyl)nicotinonitrile], the pIC50 was 7.10. `N#Cc1ccc(NCC2CCC(NCC(=O)N3CCC[C@H]3C#N)C2)nc1` (mixture of isomers) [Example-3, 6-((1SR,3RS)-3-{2-[(2S)-2-Cyanopyrrolidin-1-yl]-2-oxoethylamino}cyclopentyl-methylamino)nicotinonitrile] showed a pIC50 of 8.20. With `N#Cc1ccc(NCC2CCC(NCC(=O)N3CCC[C@H]3C#N)C2)nc1` (mixture of isomers) [Example-4, 6-((1SR,3RS)-3-{2-[(2S)-2-Cyanopyrrolidin-1-yl]-2-oxoethylamino}cyclopentyl-methylamino)nicotinonitrile dihydrochloride] the pIC50 was 8.00. `N#Cc1ccc(NCC2CCC(NCC(=O)N3CCC[C@H]3C#N)C2)nc1` (mixture of isomers) [Example-5, 6-((1SR,3RS)-3-{2-[(2S)-2-Cyanopyrrolidin-1-yl]-2-oxoethylamino}cyclopentyl-methylamino)nicotinonitrile maleate] was tested, and the pIC50 was 7.99. In the case of `N#Cc1ccc(NCC2CCC(NCC(=O)N3CCC[C@H]3C#N)C2)nc1` (mixture of isomers) [Example-7, 6-((1SR,3RS)-3-{2-[(2S)-2-Cyanopyrrolidin-1-yl]-2-oxoethylamino}cyclopentyl-methylamino)nicotinonitrile citrate], the pIC50 was 7.93. Compound `N#Cc1ccc(NCC2C=CC(NCC(=O)N3CCC[C@H]3C#N)C2)nc1` (mixture of isomers) [Example-12] has a pIC50 of 7.95. `N#Cc1ccc(NC[C@@H]2CC[C@@H](NCC(=O)N3CCC[C@H]3C#N)C2)nc1` (racemic) [Example-13, 6-((1RS,3RS)-3-{2-[(2S)-2-Cyanopyrrolidin-1-yl]-2-oxoethylamino}cyclopentyl-methylamino)nicotinonitrile] was tested, and the pIC50 was 7.92. Compound `N#Cc1ccc(NCC2CCC(NCC(=O)N3CSC[C@H]3C#N)C2)nc1` (mixture of isomers) [Example-16, (4S)-3-{2-(1SR,3RS)-3-[(5-Cyano-2-pyridylaminomethyl)cyclopentylamino]acetyl}-1,3-thiazolane-4-carbonitrile dihydrochloride] has a pIC50 of 8.56. With `N#Cc1ccc(NC[C@@H]2CC[C@@H](NCC(=O)N3CSC[C@H]3C#N)C2)nc1` (racemic) [Example-17, (4S)-3-{2-(1RS,3RS)-3-[(5-Cyano-2-pyridylaminomethyl)cyclopentylamino]acetyl}-1,3-thiazolane-4-carbonitrile dihydrochloride] the pIC50 was 8.53. Work on `N#C[C@@H]1CCCN1C(=O)CNC1CCC(CS(=O)(=O)c2ccccc2)C1` (mixture of isomers) [Example-29] yielded a pIC50 of 8.00. Work on `N#Cc1ccc(SCC2CCC(NCC(=O)N3CCC[C@H]3C#N)C2)nc1` (mixture of isomers) [Example-39, 6-((1SR,3RS)-3-{2-[(2S)-2-Cyanopyrrolidin-1-yl]-2-oxoethylamino}cyclopentyl-methylsulfanyl)nictinonitrile maleate] yielded a pIC50 of 7.95. `N#C[C@@H]1CCCN1C(=O)CNC1CCC(COc2ccc([N+](=O)[O-])cc2)C1` (mixture of isomers) [Example-43, (2S)-1-{2-[(3SR,1RS)-3-(4-Nitrophenoxymethyl)cyclopentylamino]acetyl}-pyrro-lidine-2-carbonitrile] showed a pIC50 of 7.44. `N#Cc1ccc(NC[C@H]2CC[C@@H](NCC(=O)N3CCC[C@H]3C#N)C2)nc1` [Example-8, 6-((1S,3R)-3-{2-[(2S)-2-Cyanopyrrolidin-1-yl]-2-oxoethylamino}cyclopentylmethyl-amino)nicotinonitrile] showed a pIC50 of 7.98. For `N#Cc1ccc(NC[C@H]2CC[C@@H](NCC(=O)N3CCC[C@H]3C#N)C2)nc1` [Example-9, 6-((1S,3R)-3-{2-[(2S)-2-Cyanopyrrolidin-1-yl]-2-oxoethylamino}cyclopentylmethyl-amino)nicotinonitrile dihydrochloride], the pIC50 was 8.20. In the case of `N#Cc1ccc(NC[C@@H]2CC[C@H](NCC(=O)N3CCC[C@H]3C#N)C2)nc1` [Example-10, 6-((1R,3S)-3-{2-[(2S)-2-Cyanopyrrolidin-1-yl]-2-oxoethylamino}cyclopentylmethyl-amino)nicotinonitrile], the pIC50 was 8.11. `N#Cc1ccc(NC[C@@H]2CC[C@H](NCC(=O)N3CCC[C@H]3C#N)C2)nc1` [Example-11, 6-((1R,3S)-3-{2-[(2S)-2-Cyanopyrrolidin-1-yl]-2-oxoethylamino}cyclopentylmethyl-amino)nicotinonitrile dihydrochloride] showed a pIC50 of 7.86. For `N#Cc1ccc(NC[C@H]2CC[C@@H](NCC(=O)N3C[C@@H](F)C[C@H]3C#N)C2)nc1` [Example-15, 6-((1S,3R)-3-{2-[(2S,4S)-2-Cyano-4-fluoropyrrolidin-1-yl]-2-oxoethylamino}cyclo-pentylmethylamino)nicotinonitrile], the pIC50 was 8.50. `N#C[C@@H]1CCCN1C(=O)CN[C@@H]1CC[C@H](CNc2ncccn2)C1` [Example-20, (2S)-1-{2-[(3S,1R)-3-(2-Pyrimidinylaminomethyl)cyclopentylamino)acetyl}-pyrrolidine-2-carbonitrile] was tested, and the pIC50 was 7.38. In the case of `N#C[C@@H]1CCCN1C(=O)CN[C@H]1CC[C@@H](CNc2ncccn2)C1` [Example-21], the pIC50 was 8.17. In the case of `N#C[C@@H]1CCCN1C(=O)CN[C@@H]1CC[C@H](CNc2nnnn2-c2ccccc2)C1` [Example-22, (2S)-1-{2-[(3S,1R)-3-(1-Phenyl-1H-1,2,3,4-tetraazol-5-ylaminomethyl)cyclopentyl-amino]acetyl}-pyrrolidine-2-carbonitrile], the pIC50 was 7.98. For `N#C[C@@H]1CCCN1C(=O)CN[C@@H]1CC[C@H](CNc2ccc([N+](=O)[O-])cc2F)C1` [Example-25, (2S)-1-{2-[(1R,3S)-3-(2-Fluoro-4-nitroanilinmethyl)cyclopentylamino]acetyl}-pyrrolidine-2-carbonitrile], the pIC50 was 8.07. For `N#C[C@@H]1C[C@H](F)CN1C(=O)CN[C@@H]1CC[C@H](CNc2ccc([N+](=O)[O-])cc2F)C1` [Example-26], the pIC50 was 8.29. Compound `N#C[C@@H]1CCCN1C(=O)CN[C@@H]1CC[C@H](CSc2ccccc2)C1` [Example-30, (2S)-1-{2-[(3S,1R)-3-Phenylsulfanylmethylcycopentylamino]acetytl}-pyrrolidine-2-carbonitrile] has a pIC50 of 7.20.
